These results are taken from patent publication US20120219543A1, “METHODS AND PHARMACEUTICAL COMPOSITIONS FOR THE TREATMENT OF DISORDERS OF GLUCOSE HOMEOSTASIS” (priority 2009, published 2012).

Series [1] has as its system E13.5 Rat embryonic pancreases. Put plainly: Organ culture of E13.5 rat embryonic pancreases: morphology, immunohistochemistry and surface/cell quantification. The class given is cell-based. The source says:
(§1) Pregnant Wistar rats were purchased from the Janvier Breeding centre (CERJ, LeGenet, France). Cftr-knockout (Cftr−/−) and wild-type (Cftr+/+) embryos were obtained from the progeny of heterozygous-heterozygous for the S489X mutation (Snouwaert et al. 1992) matings (CDTA, Orléans, France). The first day postcoitum was taken as embryonic day (E)0.5. Pregnant rats were killed with CO2 asphyxiation and pregnant mice by cervical dislocation according to guidelines issued by the French Animal Care Committee. Dorsal pancreatic buds from E13.5 rat and E12.5 mice embryos were dissected as described previously (Miralles et al. 1998). Briefly, the stomach, pancreas and a small portion of the intestine were dissected together, and then the pancreas primordium was isolated.
(§2) Dorsal pancreatic rudiments were cultured on 0.45 μm filters (Millipore) at the air-medium interface in a 35 mm sterile Petri dishes containing 2 ml RPMI-1640 medium (Invitrogen) supplemented with 100 U/ml penicillin, 100 μg/ml streptomycin, 10 mmol/L HEPES, 2 mmol/L L-glutamine, 1× non-essential aminoacids (Invitrogen) and 10% heat-inactivated fetal calf serum (HyClone, Logan, Utah, USA). Glibenclamide (MP Biomedical), and Glycine hydrazide (GlyH-101)(Calbiochem), used at the indicated concentrations, were first dissolved as concentrated solutions in dimethylsulfoxide DMSO (Sigma), the final concentration of DMSO in the culture medium was less than 0.5% (vol/vol). Glibenclamide and GlyH-101 were added to the media daily. The cultures were incubated at 37° C. in a humidified atmosphere composed of 95% air and 5% CO2. At the end of the culture period, the pancreases were photographied, and fixed as described below or harvested for RNA extraction.
The pancreatic rudiments were fixed in 10% formalin, pre-embedded in agarose gel (4% of type VII low-gelling-temperature agarose [Sigma] in H2O) and embedded in paraffin. Immunohistochemistry was performed on 4-μm paraffin sections as previously described) (Duvillie et al. 2006). The primary antibodies were mouse anti insulin (1/2000; Sigma), rabbit anti-glucagon (1/1000; Diasorin), rabbit anti-amylase (1/300; Sigma), rabbit anti-carboxypeptidase A (CPA) (1/600; Biogenesis, Kidlington, Oxford, UK), rabbit anti-PDX1 (1/1000) (Duvillie et al. 2006) mouse anti-BrdU (1/2; Amersham Biosciences, Buckingham, UK), rabbit anti-Proprotein Convertase Subtilisin/Kexin 1/3 (PCSK1/3), rabbit anti-Ngn3 (1/100, (Guillemain et al. 2007) The fluorescent secondary antibodies were fluorescein anti-rabbit antibody (1/200; Jackson Immunoresearch, Baltimore, Md., USA), fluorescein goat anti-rabbit Alexa Fluor 488 (1/400; Invitrogen) and Texas red anti-mouse antibody (1/200; Jackson). Nuclei were stained in blue with Hoechst 33342 (0.3 μg/ml; Invitrogen). Ngn3 detection was performed as previously described (Guillemain et al. 2007) using the Vectastain elite ABC kit (Vector laboratories).
(§3) To quantify the surface area of insulin, glucagon, PCSK1/3, CPA and amylase-expressing cells, all sections of each pancreatic rudiment were digitized. Alternate sections were examined to avoid counting the same cell twice. The surface of insulin, glucagon, PCSK1/3, CPA, amylase and Hoechst stainings were quantified using Iplab (Scanalytics). The stained areas were summed to obtain the total surface area per rudiment in mm^2. To measure proliferation of the early progenitors expressing PDX1, we counted the frequency of BrdU positive progenitors expressing PDX1 among 3000 early progenitors expressing PDX1 per rudiment. To quantify the absolute number of NGN3-expressing cells, pancreatic rudiments were sectioned and all sections were stained with an anti-NGN3 antibody. Positive cells were counted on all sections of each pancreatic rudiment. A minimum of three rudiments was analyzed per condition.

Series [2] has as its system mRNA transcripts (insulin, MafA, ZnT-8, Ngn3, NeuroD1, Pou3F4, somatostatin) in E13.5 Rat pancreases. Description: Real-time PCR of mRNA transcripts in cultured E13.5 rat pancreases. The class given is cell-based. Particulars: for insulin mRNA level increase / ZnT-8 and MafA expression: Glib 5D.
Text: as §1, §2
Total RNA was isolated from pools of at least three pancreases using the Qiagen RNeasy Microkit (Qiagen, Courtaboeuf, France) and reverse transcribed using Superscript reagents (Invitrogen). Real-time PCR was performed with the 7300 Fast real-time PCR system (Applied Biosystem) using either Taqman universal PCR master mix or SYBR green PCR master mix (Applied Bio system) with primers and labelled probes specific for each gene. Peptidylpropyl isomerase A/Cyclophilin A was used as endogenous control and E16.5 pancreas cDNA as calibrator sample. The data were analyzed by comparative cycle threshold method (Livak and Schmittgen 2001) and presented as the fold change in gene expression. At least three pools of explants were analysed by condition.
A general note: In qPCR the cycle at which signal appears reflects the starting amount.

Series [3] has as its system human liver cell line HepG2. To be noted: HepG2 cultured with 100 μM glibenclamide; cited from earlier work.
The target in another series is CFTR channel (Homo sapiens, UniProt P13569). To be noted: open-channel block mechanism; cited from earlier work.
Series [4] relates to E13.5 Rat embryonic pancreases (PDX-1+ progenitors, insulin-expressing cells). Description: BrdU incorporation (proliferation) in cultured E13.5 rat pancreases. Type of series: cell-based. To be noted: 10 μM GlyH-101, D5, BrdU during last hour. As to the method:
as §2, with “Glibenclamide and GlyH-101 were added to the media daily. The cultures were incubated at 37° C. in a humidified atmosphere composed of 95% air and 5% CO2. At the end of the culture period, the pancreases were photographied, and fixed as described below or harvested for RNA extraction.” left out
as §3, with “Alternate sections were examined to avoid counting the same cell twice.” left out, “The stained areas were summed to obtain the total surface area per rudiment in mm^2.” left out, “A minimum of three rudiments was analyzed per condition.” left out

Series [5] concerns E12.5 pancreases from WT (CFTR+/+) mice. Description: Organ culture of E12.5 pancreases from WT (Cftr+/+) mice, insulin-positive cell area. To be noted: 10 μM GlyH-101, 6 days of culture. The class given is cell-based. How it is done:
(§4) FIG. 1: Effects of GlyH-H101 on endocrine cell development. Quantification by real-time PCR of insulin (A) and MafA (B) mRNA transcripts in E 13.5 Rat pancreases before (D0) and after 1, 3, 5 and 7 days of culture (D1, D3, D5 and D7 respectively) with or without 10 μM GlyH-101. Each data point represents the mean±sem of at least four independent experiments ***, p<0.001. (C) Immunohistological analysis of E13.5 Rat pancreases cultured 5 days in the presence or in absence of 10 μM GlyH-101. Insulin and amylase staining were respectively in red and green. Nuclei were stained in blue with Hoechst. Scale bar: 50 μm (D). β cell differentiation was evaluated by quantification of the absolute surface area occupied by insulin staining in E 13.5 Rat pancreases after 5 days of culture in presence or in absence of 10 μM GlyH-101. Values are means±sem of at least three independent experiments *, p<0.05; (E) Quantification by real-time PCR of Ngn3 transcripts in E13.5 Rat pancreases before (D0) and after 1, 3, 5 and 7 days of culture (D0, D1, D3, D5 and D7 respectively) with or without 10 μM GlyH-101. […] (G) Quantification of the number of NGN3 positive-cells in E13.5 Rat pancreases cultured for 5 days in presence or in absence of 10 μM GlyH-101. […]
(§5) To quantify the surface area of insulin, glucagon, PCSK1/3, CPA and amylase-expressing cells, all sections of each pancreatic rudiment were digitized. […]

Series [6] concerns E12.5 pancreases from knockout (CFTR-/-) mice. Description: Organ culture of E12.5 pancreases from Cftr knockout (Cftr-/-) mice, insulin-positive cell area. Type of series: cell-based. To be noted: 10 μM GlyH-101, 6 days of culture. As to the method: as §4, §5
The subject of series [7] is beta cell mass of embryos of pregnant mice. Description: In vivo administration to pregnant mice, insulin staining surface of embryonic pancreas. Particulars: E12.5 pregnant mice, 10 mg/kg/day for 5 days, intraperitoneal, embryos harvested at E18.5. As to the method:
To evaluate its effects in vivo, GlyH 101 was administrated to a E12.5 pregnant mice for 5 days at 10 mg/kg/day (according to Yang et al. 2008) in a saline DMSO solution ([…]) by intraperitoneal injection two times a day. The embryos were harvested at E18.5 and the pancreas fixed for histological immunostaining. The surface of insulin staining was quantified and normalized to the whole pancreatic tissue.

Setting [8] is: 100 μM, 7 days of culture, vs absence.

Entries after “also recorded” stand apart in the source; their conditions may differ.

CFTR channel, sequence (P13569 whole entry): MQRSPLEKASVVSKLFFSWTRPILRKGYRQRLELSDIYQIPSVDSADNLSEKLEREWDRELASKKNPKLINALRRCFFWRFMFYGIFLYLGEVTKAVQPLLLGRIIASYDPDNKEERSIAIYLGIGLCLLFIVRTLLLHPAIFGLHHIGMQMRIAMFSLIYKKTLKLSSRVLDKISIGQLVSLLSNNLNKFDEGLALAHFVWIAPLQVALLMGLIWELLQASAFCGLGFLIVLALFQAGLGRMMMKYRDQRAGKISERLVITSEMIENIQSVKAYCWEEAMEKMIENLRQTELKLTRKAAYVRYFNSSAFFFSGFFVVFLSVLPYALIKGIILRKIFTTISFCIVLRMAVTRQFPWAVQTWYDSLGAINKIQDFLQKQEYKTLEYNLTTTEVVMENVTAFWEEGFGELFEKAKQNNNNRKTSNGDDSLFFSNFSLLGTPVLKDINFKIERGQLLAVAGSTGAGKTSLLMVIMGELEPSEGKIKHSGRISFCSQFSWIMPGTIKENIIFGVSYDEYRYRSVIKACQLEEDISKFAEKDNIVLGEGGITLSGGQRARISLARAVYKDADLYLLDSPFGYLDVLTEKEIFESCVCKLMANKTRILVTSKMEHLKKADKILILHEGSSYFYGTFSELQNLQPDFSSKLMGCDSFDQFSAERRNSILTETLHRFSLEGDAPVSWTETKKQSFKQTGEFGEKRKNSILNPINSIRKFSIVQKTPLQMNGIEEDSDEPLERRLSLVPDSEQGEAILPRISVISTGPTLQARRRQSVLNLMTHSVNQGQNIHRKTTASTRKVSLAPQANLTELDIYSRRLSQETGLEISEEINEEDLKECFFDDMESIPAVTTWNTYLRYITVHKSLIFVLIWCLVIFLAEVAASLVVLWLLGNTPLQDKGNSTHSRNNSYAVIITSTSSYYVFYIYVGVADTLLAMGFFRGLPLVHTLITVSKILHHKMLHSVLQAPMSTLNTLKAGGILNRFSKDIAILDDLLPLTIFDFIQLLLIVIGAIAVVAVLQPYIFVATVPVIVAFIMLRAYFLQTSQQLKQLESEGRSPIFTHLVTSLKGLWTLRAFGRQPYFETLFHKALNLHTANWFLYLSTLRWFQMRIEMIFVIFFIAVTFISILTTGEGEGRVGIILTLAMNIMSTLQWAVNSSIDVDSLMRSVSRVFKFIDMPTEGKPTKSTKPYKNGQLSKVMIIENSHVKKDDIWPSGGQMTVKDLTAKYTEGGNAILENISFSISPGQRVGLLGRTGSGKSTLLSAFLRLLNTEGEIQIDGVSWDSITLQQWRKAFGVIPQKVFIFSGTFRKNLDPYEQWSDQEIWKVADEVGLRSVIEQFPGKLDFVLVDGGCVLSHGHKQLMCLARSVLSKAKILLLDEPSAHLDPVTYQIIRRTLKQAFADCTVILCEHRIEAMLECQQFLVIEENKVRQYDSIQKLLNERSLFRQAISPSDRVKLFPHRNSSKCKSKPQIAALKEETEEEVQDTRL

On to `COc1ccc(Cl)cc1C(=O)NCCc1ccc(S(=O)(=O)NC(=O)NC2CCCCC2)cc1` [glibenclamide], for which the pancreatic growth entry in series [1] (10 nM, 100 nM, 1, 10 or 100 μM glibenclamide vs control, 7 days of culture) is listed as “similar”. Besides, the “number of NGN3+ cells (immunohistochemistry)” value in series [1] (100 μM, 5 days of culture, vs absence) is “threefold”. The “increase of the number of glucagon-expressing cells” value in series [1] (100 μM, 7 days of culture) amounted to 3.5 fold. In series [1] (setting [8]), the “decrease of surface area occupied by the insulin-cell population” value is listed as 70%. Besides, the “surface area occupied by amylase- and carboxypeptidaseA-positive cells” value in series [1] (setting [8]) was “No differences”. Further, in series [1] (100 μM, 7 days of culture, vs without), the “surface area occupied by PCSK1/3 staining in PDX-1+ cells” value is recorded as “similar”. Further, the “exocrine (acinar and ductal) development” value in series [1] (100 μM, 7 days, amylase, carboxypeptidaseA, SPP1 and CFTR markers) is “did not to modify”. Moreover, the “apoptosis (Hoechst staining of the nuclei)” value in series [1] (10 and 100 μM, 7 days of culture, vs without) is recorded as “no difference”. In addition, in series [1] (10 or 100 μM, 7 days of culture), the “overall size of pancreases (quantitative analysis)” value is given as “lack of glibenclamide toxicity”. In series [1] (Glib 5D-treated pancreas), the “insulin-staining area (insulin-positive cells)” value was “significant increase”. Also, in series [1] (Glib-5D pancreases at D9, D11 or D14), the insulin-expressing cells observed entry is “A large number”. In addition, the insulin-containing cells detected result in series [1] (glibenclamide present throughout 9, 11 or 14 days of culture) is reported as “less”. Moreover, in series [1] (up to 1 micromolar), the pancreas development entry is “did not affect”. The NeuroD1 expression result is “significantly increased; also recorded: twofold” in series [2] (100 μM, D5) and “enhanced” in series [2] (100 μM, D7). Also, in series [2] (100 μM, D7), the “Pou3F4/Brn4 mRNA level” value is “significant increase”. Also, the “NeuroD1 mRNA levels” value in series [2] (100 μM, after 1 and 3 days of culture, vs absence) is recorded as “similar”. In addition, the Ngn3 expression increase result in series [2] (100 μM, after 5 days of culture, p<0.001) was “sevenfold; also recorded: seven”. For the same compound, the “increase in somatostatin expression” value in series [2] (100 μM, after 7 days of culture) is “twofold”. Moreover, the “Ngn3 mRNA level” value in series [2] (100 μM, after 7 days of culture, p<0.001) is given as “dramatically higher; also recorded: threefold”. The “insulin expression (real-time PCR)” value in series [2] (100 μM, as early as D3) is “strongly reduced”. Further, the Ngn3 expression entry in series [2] (100 μM, day 1 and 3, vs absence) is reported as “similar”. The “expression of β-cell markers ZnT-8 and MafA” value in series [2] (100 μM, over the 7 days of culture) was “did not affect”. In series [2] (2 days after glibenclamide removal), the “reversal of low insulin content and reduced insulin gene transcription” value was “completely reverted”. Further, the “insulin mRNA level increase” value in series [2] (D9, vs without) is “threefold”; in series [2] (D11, vs without) it was “twofold”; in series [2] (D14, vs without) it was “threefold”. Also, the “ZnT-8 and MafA expression” value is on record as “dramatic increase” in series [2] (after 9, 11 and 14 days of culture, p<0.01); “similar” in series [2] (after 7 days of culture). Also, the “insulin mRNA level” value in series [2] (glibenclamide only first 5 days of culture (Glib 5D), D7, vs without) was “identical”. In addition, in series [3], the toxicity and apoptosis result is given as “no toxicity nor apoptosis”. Further, the CFTR channel inhibition result on CFTR channel is given as “inhibits CFTR channel in a dose-dependant manner”.

As for `O=C(CNc1ccc2ccccc2c1)NN=Cc1cc(Br)c(O)c(Br)c1O` [GlyH-101, N-2-napthalenyl-[(3,5-dibromo-2,4-dihydroxyphenyl)methylene]glycine hvdrazide], the exocrine differentiation entry in series [1] (10 μM GlyH-101) is listed as “did not observe any effects”. Besides, in series [1] (10 μM GlyH-101, 5 days of culture), the “area occupied by insulin-positive cells” value was “dramatic increase”. Further, the “pool/number of Ngn3+ pancreatic endocrine progenitor cells” value in series [1] (10 μM GlyH-101, D5) was “increased number; also recorded: amplified and maintained”. Also, in series [2] (10 μM GlyH-101, D3), the “increase of MafA mRNA transcripts” value is given as “more than twofold” and the “increase of insulin mRNA transcripts” value is on record as “more than twofold”. In addition, the “increase in Ngn3 expression (real-time PCR)” value in series [2] (10 μM GlyH-101, D5) is listed as 8 fold. Besides, the insulin expression result in series [2] (10 μM GlyH-101, after 5 and 7 days of culture) is “sixfold”. In addition, in series [2] (10 μM GlyH-101, from D1), the “Ngn3 expression (real-time PCR)” value was “strong increase”. In addition, the “proliferative rate of insulin-expressing cells (BrdU)” value in series [4] was “No differences”. Moreover, the “insulin+ cell area” value in series [5] is “increase”. Also, the “insulin+ cell area” value in series [6] is listed as “unable to modify”. Further, in series [7], the “beta cell mass (insulin staining surface normalized to whole pancreatic tissue)” value is given as “increased”.
